# Marks after values point to notes of the source that are not given here.
# Tested on: spontaneous motion activity of rats
# Test: Depression of spontaneous motion activity (SMA) in "open field" test
# Type: in vivo
# Settings: for Spontaneous activity (total values) b) after haloperidol administration: rats, i/p., open field 2 minutes, 10 minutes after administration, M±σ
# Text: The presently-known clinical methods of haloperidol administration are: intravenous, intramuscular and oral. […] In theory, it is possible to improve the efficacy of the medicine, to reduce the single-administration dosage (through elimination of the effect of “first passage” through the liver) and to alleviate adverse somatic side effects.
# The Applicant used pharmacological combination of intraperitoneally (i/p.) administered haloperidol with nasally applied CO-generating composition.
# The experiments were performed on 24 puberty-age white rats (of no particular breed), body mass: 100-120 grams. Depression in SMA of the animals, as produced by i/p. drug administration, was compared with SMA depression produced by i/p. administration combined with nasal administration of CO-generating composition on the basis of a hem-oxygenase enzyme form. SMA of each animal was evaluated as total sum of values obtained within 2 minutes of “open field” test (in terms of the number of poles/supports, number of ring exercises and cleanings), prior to drug administration, and 10 minutes after drug administration.
# The experimental animals were subdivided into 4 groups:
# Group No. 1: controls (6 animals), no exposure;
# Group No. 2: haloperidol (7 animals), i/p., 0.2 mg/kg;
# Group No. 3: haloperidol (5 animals), i/p., 0.05 mg/kg;
# Group No. 4: haloperidol (6 animals), i/p., 0.05 mg/kg, in pharmacological combination with CO-generating composition.
# Haloperidol was administered by i/p. route within the physiological solution; CO-generating composition was administered nasally.
# [1] = preliminary studies, intraperitoneal, 0.2 mg/kg
smiles,measurement,setting,value
O=C(CCCN1CCC(O)(c2ccc(Cl)cc2)CC1)c1ccc(F)cc1 [haloperidol],Persistence of haloperidol-dependant depression in motive responses,[1],53.5 ± 7.7 min
same,Time to development of haloperidol-dependant depression in motive responses,[1],4.2 ± 1.8 min
same,Spontaneous activity (total values) b) after haloperidol administration,0.05 mg/kg,24 ± 3**^)
same,Spontaneous activity (total values) b) after haloperidol administration,0.2 mg/kg,3 ± 1*^)

# Reference: patent publication US20080207600A1, “Pharmaceutical Combination for the Treatment of Cns Functional Disorders” (priority 2004, published 2008)
